The subject of data set [1] is EFO-27 human ovarian cancer cells (LHRH binding sites). Description: Direct binding/uptake of 177Lu-labeled LHRH-II analogs to EFO-27 cells. Conditions: 177Lu-labeled, 4° C., 1 h, single concentration. On the procedure:
All reagents and chemicals were obtained from Sigma unless otherwise specified. LHRH analogs and ^177Lu-LHRH-II analogs were prepared by in-house chemists, as described elsewhere in the application. ^177Lu-LHRH-II analogs were not HPLC purified, as they had been prepared using formulation conditions that yielded high RCP without the need for purification. […] The HPLC-purified material was taken in a stabilizing buffer containing 5% lactose, 0.1% L-cysteine hydrochloride and 800 KIU/mL aprotinin and received as a lyophilized product and stored at −70° C. This was reconstituted in distilled water, aliquoted and stored at −70° C. The radioactivity was determined using Microplate Scintillation counter (Wallac Microbeta Trilux).
For the binding assay, EFO-27 cells were seeded onto 96-well clear flat-bottom tissue-culture-treated plates at 15,000/well density in the growth medium and used for assay on day 2 post-seeding. Cells were routinely checked for confluence and contamination and cell count was done occasionally to ensure consistency in cell numbers.
Direct Binding: Direct binding studies were carried out by incubating appropriate ^177Lu-labeled compounds with EFO-27 cells at 4° C. for 1 h followed by washing off the unbound radioactivity. Non-specific binding was determined by incubating the ^177Lu-LHRH-II analogs in the presence of a large excess (30 uM) of cold (unlabeled) LHRH-II analogs. A 96-well plate format was used.

In data set [2] the test system is PC-3 (human prostate cancer) cells. Nature of the data set: Internalization/efflux studies in PC-3 cells. In kind it is cell-based. On the procedure:
Internalization/Efflux Studies: The internalization and efflux studies were carried out following the general procedure. Basically, ^177Lu-LHRH II or ^125I-LHRH II ([^125I-Tyr^8]BRU-2477) (75 uL, 3.0 μCi/mL) was added to the EFO-27 or PC-3 cells. The cells were incubated for 40 min at 37° C. The unbound radioactivity was washed off (4×). Following addition of fresh medium, the cells were further incubated for up to 2 h. At various time points (15, 30, 60 & 120 min) the distribution of radioactivity (membrane-bound, internalized, and efflux) was determined
To determine whether prostate cancer cells (PC-3) behave differently from EFO-27 cells, internalization and efflux studies were carried out with ^177Lu-BRU-2813 using both cell lines.

The test system of a further data set is EFO-27 cells. Nature of the data set: Internalization/efflux studies in EFO-27 cells. In kind it is cell-based, human. The method, boiled down: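 EFO-27 cells incubated 40 min at 37° C with ^177Lu-LHRH II or ^125I-LHRH II ([^125I-Tyr^8]BRU-2477) at 3.0 μCi/mL, washed, then kept in fresh medium. At 0, 15, 30, 60 and 120 min radioactivity split into membrane-bound, internalized and efflux fractions.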

The conditions of data set [3]: mouse, in vivo, 10 min. On the procedure:
In addition, at both 2 and 10 min post injection, blood samples from two mice were collected. The collected blood samples at each time point were pooled and treated with two times their volume with ice-cooled methanol, and then the mixture was centrifuged at 4° C. for 20 min at 20,000×g to precipitate proteins. The supernatant was collected and the organic solvent in the solution was removed by speed-vacuum for 60 min. The concentrated supernatant was assayed by HPLC.

The nature of data set [4]: In vitro metabolic stability in mouse liver homogenate at 37° C. Type of data set: in vitro ADME. As to the method: Livers from 10 female Tac:NCr:Foxn1^nu/nu mice were excised, rinsed with ice cold PBS (no Ca^++ or Mg^++) and weighed. The tissues were minced with scissors in Petri dishes on ice with Tris buffered saline (Pierce BupH™ Tris buffered saline packs, #28376; 25 mM Tris, 150 mM NaCl, pH 7.2). After mincing, the tissues were dounce homogenized, and the total volume adjusted with ice cold Tris buffer (4 mL for every gram of excised tissue). The homogenate was centrifuged at ˜4000×g for 10 min at 4° C. The supernatants were aliquoted into Eppendorf tubes on ice (200 and 100 μl volumes) and stored at −80° C. Kidney homogenates were similarly prepared. […] The mixture was centrifuged at 4° C. for 20 min at 20,000×g to precipitate the protein; 10 μL (˜7.6 μCi) of the supernatant was injected into the HPLC for the analysis. […] Peaks at these retention times were also observed in the in vivo plasma sample (FIG. 1). […] After 0 and 60 min, the sample was removed from the incubator, immediately cooled on ice and 2 μL of 10 mM EDTA and 0.2 mL of ice-cooled MeOH were added, mixing after each addition. The proteins in the sample were separated by centrifugation at 14,000 rpm for 20 min. The supernatant was harvested and, in the samples spiked with the ^177Lu-analog, the radioactivity was measured using a Capintec dose calibrator to determine recovery. The sample was then analyzed by HPLC. […] After 0 and 60 min, the sample was removed from the incubator, immediately cooled on ice and 2 μL of 10 mM EDTA and 0.24 mL of ice-cooled methanol was added, mixing after each addition. The proteins in the sample were separated by centrifugation at 14,000 rpm for 20 min. The supernatant was collected and analyzed by LC/MS as described earlier herein.

The nature of another data set: in vitro. Type of data set: in vitro ADME, mouse. As to the method:
Livers from 10 female Tac:NCr:Foxn1^nu/nu mice were excised, rinsed with ice cold PBS (no Ca^++ or Mg^++) and weighed. The tissues were minced with scissors in Petri dishes on ice with Tris buffered saline (Pierce BupH™ Tris buffered saline packs, #28376; 25 mM Tris, 150 mM NaCl, pH 7.2). After mincing, the tissues were dounce homogenized, and the total volume adjusted with ice cold Tris buffer (4 mL for every gram of excised tissue). The homogenate was centrifuged at ˜4000×g for 10 min at 4° C. The supernatants were aliquoted into Eppendorf tubes on ice (200 and 100 μl volumes) and stored at −80° C. Kidney homogenates were similarly prepared. […] The mixture was centrifuged at 4° C. for 20 min at 20,000×g to precipitate the protein; 10 μL (˜7.6 μCi) of the supernatant was injected into the HPLC for the analysis. […] Peaks at these retention times were also observed in the in vivo plasma sample (FIG. 1). […] The final concentration for the Lu-BRU-2813 in the homogenate sample solution was ˜0.4 mg/mL. After 60 min incubation, the sample was immediately cooled on ice, and then 0.48 mL of ice-cooled methanol was added. The sample was centrifuged at 4° C. for 20 min at 20,000×g to precipitate the protein. The supernatant was collected, concentrated using a speed vacuum to remove organic solvents, and then analyzed by LC/MS.

The mark [5] stands for this setting: female, Tac:NCr:Foxn1nu/nu, mouse, tissue homogenate, pH 7.2.

In the case of `N=C(N)NCCC[C@H](NC(=O)[C@@H](Cc1ccc2ccccc2c1)NC(=O)CN1CCN(CC(=O)O)CCN(CC(=O)O)CCN(CC(=O)O)CC1)C(=O)N[C@@H](Cc1c[nH]c2ccccc12)C(=O)N[C@@H](CO)C(=O)N[C@@H](Cc1cnc[nH]1)C(=O)N[C@H](CCCNC(=N)N)C(=O)N[C@@H](Cc1c[nH]c2ccccc12)C(=O)N[C@@H](Cc1ccc(C(=O)c2ccccc2)cc1)C(=O)N1CCC[C@H]1C(=O)NNC(N)=O` [177Lu-BRU-2813, Lu-DOTA-Dnal2-Arg-Trp-Ser-His-Darg-Trp-Bpa4-Pro-azaGly-NH2, metal not drawn], the entries for the “direct binding / uptake” value in data set [1] and in data set [1] (listed as Lu-BRU-2813) were 19% and 18.8%, respectively. The initial internalization in data set [2] (% of cell-associated counts) is on record as 25%; in the data set on EFO-27 cells (% of total bound (cell-associated) radioactivity, T=0), 27%. Further, in data set [2] (% of the total bound), the cell surface activity was 60-65%. Further, the efflux (in data set [2] (in 1 h); in the data set with EFO-27 cells (in 1 h)) was 75-80% each time. Also, in the data set with EFO-27 cells (% of the total bound), the “cell surface (membrane) binding” value is 60-65%. Moreover, the “radioactivity remaining in the plasma still in parent form” value in data set [3] came to 66%. In addition, the “metabolism in liver homogenate” value in data set [4] was “Extensive metabolism was seen”. For the same compound, the share remaining at 10 min, 2.3 mCi/mL in data set [4] (setting [5]) came to 18.3%; in the data set “in vitro” (female, Tac:NCr:Foxn1nu/nu, mouse, other tissue homogenate, pH 7.2), 2.4%. The compound further showed an amount remaining at 1 h, 0.3 mg/mL in data set [4] (setting [5]) of 12.4 ± 8.7%. Besides, the “metabolism in kidney homogenate” value in the data set “in vitro” was “Extensive metabolism was seen”.

Values taken from patent US20120045393A1 (priority 2009, published 2012).
